Data reported in US20100184673A1, “USE OF PARATHYROID HORMONE ( 1-34 ) AS ANTI-HIV AGENT” (priority 2007, published 2010).

Tested on: drug-resistant Mycobacterium tuberculosis
Conditions: peptide 10 micrograms per ml, seven days

## CC[C@H](C)[C@H](NC(=O)[C@H](CCC(=O)O)NC(=O)[C@H](CO)NC(=O)[C@@H](NC(=O)[C@@H](N)CO)C(C)C)C(=O)N[C@@H](CCC(N)=O)C(=O)N[C@@H](CC(C)C)C(=O)N[C@@H](CCSC)C(=O)N[C@@H](Cc1cnc[nH]1)C(=O)N[C@@H](CC(N)=O)C(=O)N[C@@H](CC(C)C)C(=O)NCC(=O)N[C@@H](CCCCN)C(=O)N[C@@H](Cc1cnc[nH]1)C(=O)N[C@@H](CC(C)C)C(=O)N[C@@H](CC(N)=O)C(=O)N[C@@H](CO)C(=O)N[C@@H](CCSC)C(=O)N[C@@H](CCC(=O)O)C(=O)N[C@@H](CCCN=C(N)N)C(=O)N[C@H](C(=O)N[C@@H](CCC(=O)O)C(=O)N[C@@H](Cc1c[nH]c2ccccc12)C(=O)N[C@@H](CC(C)C)C(=O)N[C@@H](CCCN=C(N)N)C(=O)N[C@@H](CCCCN)C(=O)N[C@@H](CCCCN)C(=O)N[C@@H](CC(C)C)C(=O)N[C@@H](CCC(N)=O)C(=O)N[C@@H](CC(=O)O)C(=O)N[C@H](C(=O)N[C@@H](Cc1cnc[nH]1)C(=O)N[C@@H](CC(N)=O)C(=O)N[C@@H](Cc1ccccc1)C(=O)O)C(C)C)C(C)C [pTH (1-34)]
  % inhibition: 0.0%
